Results: patent publication US20040038855A1 (priority 1999, published 2004)
Counter-ions that a name gives are not always drawn. Like-named read-outs stand apart in the source and are kept apart here.

Legend:
human α2C adrenoceptor = target: T1, human α2C adrenoceptor (Homo sapiens, UniProt P18825); assay: Binding affinity at the human α2C adrenergic receptor
T1 construct: expressed in transfected cells
T1 sequence (P18825 1-462): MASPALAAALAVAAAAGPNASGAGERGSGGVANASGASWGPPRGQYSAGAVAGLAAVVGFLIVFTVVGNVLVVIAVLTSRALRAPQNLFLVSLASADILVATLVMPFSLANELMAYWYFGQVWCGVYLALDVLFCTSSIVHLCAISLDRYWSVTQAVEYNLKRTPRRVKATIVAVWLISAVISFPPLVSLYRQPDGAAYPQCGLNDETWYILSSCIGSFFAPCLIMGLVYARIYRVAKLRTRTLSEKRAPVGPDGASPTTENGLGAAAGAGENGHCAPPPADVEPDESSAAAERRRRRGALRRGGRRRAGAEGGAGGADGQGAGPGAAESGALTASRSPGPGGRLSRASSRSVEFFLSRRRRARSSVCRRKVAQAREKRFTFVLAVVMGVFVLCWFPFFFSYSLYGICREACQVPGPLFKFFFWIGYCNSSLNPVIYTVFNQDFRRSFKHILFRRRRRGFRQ
From the text: (§1) Other receptors: Cell membranes expressing human dopamine D1, D2, D4 and rat D3 receptors were purchased through BioSignal, Inc. (Montreal, Canada). Binding assays using the histamine H1 receptor; dopamine receptors; and α1A, α1B, and α2 adrenergic receptors may be carried out according to the procedures described in U.S. Pat. No. 5,780,485, the disclosure of which is hereby incorporated by reference in its entirety into this application. Binding assays using the dopamine D5 receptor may be carried out according to the procedures described in U.S. Pat. No. 5,882,855, the disclosure of which is hereby incorporated by reference in its entirety into this application. Binding assays for the human α1D adrenergic receptor may be carried out according to the procedures described in U.S. Pat. No. 6,156,518, the disclosure of which is hereby incorporated by reference in its entirety into this application.

[1] = target: T2, human α1D adrenergic receptor (Homo sapiens, UniProt P25100); assay: Binding affinity at the human α1D adrenergic receptor; conditions: Table 3d; read-out: hα1D Ki
T2 construct: expressed in transfected cells
T2 sequence (P25100 1-572): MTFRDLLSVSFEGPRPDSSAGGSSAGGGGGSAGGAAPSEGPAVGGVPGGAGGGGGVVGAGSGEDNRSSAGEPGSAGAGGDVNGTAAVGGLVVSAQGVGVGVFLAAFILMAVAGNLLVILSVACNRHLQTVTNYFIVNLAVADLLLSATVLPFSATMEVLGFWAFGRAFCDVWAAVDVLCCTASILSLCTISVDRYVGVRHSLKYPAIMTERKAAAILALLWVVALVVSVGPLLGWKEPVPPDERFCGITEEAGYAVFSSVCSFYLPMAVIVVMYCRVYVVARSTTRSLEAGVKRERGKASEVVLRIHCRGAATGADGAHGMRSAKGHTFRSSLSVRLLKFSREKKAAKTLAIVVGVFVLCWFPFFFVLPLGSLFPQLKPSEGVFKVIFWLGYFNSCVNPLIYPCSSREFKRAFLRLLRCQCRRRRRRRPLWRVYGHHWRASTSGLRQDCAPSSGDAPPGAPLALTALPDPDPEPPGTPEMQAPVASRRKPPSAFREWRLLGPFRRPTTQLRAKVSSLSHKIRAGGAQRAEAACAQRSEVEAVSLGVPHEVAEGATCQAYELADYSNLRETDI
From the text: as §1

human 5HT1A receptor = target: T3, human 5HT1A receptor (Homo sapiens, UniProt P08908); assay: Binding affinity at the human 5HT1A receptor (3H8OHDPAT); conditions: Table 3e; read-out: h5HT1A Ki
T3 construct: The cDNA corresponding to the 5HT1A receptor open reading frames and variable noncoding 5′ and 3′regions; expressed in transfected cells; host or cells: COS7 cells, transient, DEAE-dextran, vector pCEXV3
T3 sequence (P08908 1-422): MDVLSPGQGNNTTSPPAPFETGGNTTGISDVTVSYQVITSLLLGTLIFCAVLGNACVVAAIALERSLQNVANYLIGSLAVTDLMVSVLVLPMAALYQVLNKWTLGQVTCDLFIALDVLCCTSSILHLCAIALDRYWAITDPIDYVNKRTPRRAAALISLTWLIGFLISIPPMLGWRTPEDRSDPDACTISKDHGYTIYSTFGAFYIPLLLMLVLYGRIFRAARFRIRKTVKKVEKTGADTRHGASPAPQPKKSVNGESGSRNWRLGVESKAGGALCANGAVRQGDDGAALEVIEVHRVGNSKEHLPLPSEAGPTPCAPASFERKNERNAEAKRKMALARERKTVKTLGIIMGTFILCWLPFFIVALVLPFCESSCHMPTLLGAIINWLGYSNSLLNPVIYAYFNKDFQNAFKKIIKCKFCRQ
Procedure: 5HT1A Receptor: The cDNA corresponding to the 5HT1A receptor open reading frames and variable noncoding 5′ and 3′regions, was cloned into the eukaryotic expression vector pCEXV3. These constructs were transfected transiently into COS7 cells by the DEAEdextran method (Cullen, 1987), and harvested after 72 hours. Radioligand binding assays were performed as described above for the 5HT2A receptor, except that ^3H8OHDPAT was used as the radioligand and nonspecific binding was determined by the addition of 10 μM mianserin.

[2] = target: T4, human Histamine H1 receptor (Homo sapiens, UniProt P35367); assay: Binding affinity at the human histamine H1 receptor
T4 construct: expressed in transfected cells
Outline: (§2)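 Receptor binding read-out throughout; membranes expressing human D1 or D2 receptor were used for those two targets.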

human MCH1 receptor = human MCH1 receptor (Homo sapiens, UniProt Q99705); assay: Intracellular calcium response to MCH in COS-7 cells transfected with MCH1 (fluo-3, FLIPR): antagonist potency; format: cell-based; parameters: expressed in transfected cells; host or cells: COS-7
From the text: MCH1 antagonist compounds were identified by their ability to inhibit the MCH-elicited response. […]. From the IC50 values, the antagonist potency (Kb)was derived using the Cheng-Prussof correction (Lazareno and Birdsall, 1993). […]

[3] = target: T5, human Alpha-1a Adrenergic receptor (Homo sapiens, UniProt P35348); assay: Binding affinity at the human alpha-1A adrenergic receptor
T5 construct: expressed in transfected cells
T5 sequence (P35348 1-466): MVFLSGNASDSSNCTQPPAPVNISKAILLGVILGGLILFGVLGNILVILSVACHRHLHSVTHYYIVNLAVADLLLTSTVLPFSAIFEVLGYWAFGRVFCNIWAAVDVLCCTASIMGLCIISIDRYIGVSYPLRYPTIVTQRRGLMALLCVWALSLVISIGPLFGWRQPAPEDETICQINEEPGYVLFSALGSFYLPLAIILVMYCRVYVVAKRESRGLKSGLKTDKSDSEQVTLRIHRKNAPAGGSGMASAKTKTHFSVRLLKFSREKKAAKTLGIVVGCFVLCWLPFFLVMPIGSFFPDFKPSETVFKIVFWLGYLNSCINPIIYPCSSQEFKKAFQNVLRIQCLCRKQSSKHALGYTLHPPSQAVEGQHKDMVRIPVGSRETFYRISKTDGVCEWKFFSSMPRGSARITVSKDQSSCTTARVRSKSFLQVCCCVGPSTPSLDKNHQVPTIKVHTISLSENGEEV
Outline: as §2

Sequence of human MCH1 receptor (Q99705 whole entry): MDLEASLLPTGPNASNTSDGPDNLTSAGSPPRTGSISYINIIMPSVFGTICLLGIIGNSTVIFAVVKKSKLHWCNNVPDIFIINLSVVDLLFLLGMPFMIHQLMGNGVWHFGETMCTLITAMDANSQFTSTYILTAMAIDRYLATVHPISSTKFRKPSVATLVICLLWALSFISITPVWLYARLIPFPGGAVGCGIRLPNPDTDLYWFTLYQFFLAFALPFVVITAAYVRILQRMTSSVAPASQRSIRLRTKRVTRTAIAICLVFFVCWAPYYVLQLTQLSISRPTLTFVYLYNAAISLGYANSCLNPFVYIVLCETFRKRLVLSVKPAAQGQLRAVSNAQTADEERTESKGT
T4 sequence (P35367 whole entry): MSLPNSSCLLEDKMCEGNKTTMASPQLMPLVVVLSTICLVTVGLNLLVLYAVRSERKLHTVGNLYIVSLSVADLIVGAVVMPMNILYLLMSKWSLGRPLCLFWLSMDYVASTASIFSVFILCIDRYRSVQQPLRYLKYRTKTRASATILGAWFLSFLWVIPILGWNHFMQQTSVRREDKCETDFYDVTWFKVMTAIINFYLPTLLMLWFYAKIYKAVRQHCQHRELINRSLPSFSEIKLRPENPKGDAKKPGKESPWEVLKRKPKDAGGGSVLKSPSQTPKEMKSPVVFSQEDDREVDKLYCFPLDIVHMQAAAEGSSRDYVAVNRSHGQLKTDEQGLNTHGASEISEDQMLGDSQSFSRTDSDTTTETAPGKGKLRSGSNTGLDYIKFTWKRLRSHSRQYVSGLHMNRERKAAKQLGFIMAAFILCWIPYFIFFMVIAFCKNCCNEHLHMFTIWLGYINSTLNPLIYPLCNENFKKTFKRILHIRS

Compound | Ki (human α2C adrenoceptor; Table 3d, read-out: hα2C Ki) [nM] | Ki [1] [nM] | Ki (human 5HT1A receptor) [nM] | Ki ([2]; Table 3e, read-out: hH1 Ki) [nM] | Ki ([3]; Table 3d, read-out: hα1A Ki) [nM] | Ki [2] [nM] | Kb (human MCH1 receptor; read-out: Kb (nM) hMCH1) [nM] | also measured
2-(3,4-DIFLUOROPHENYL)4,5-DIHYDROIMIDAZOLE-1-CARBOXYLIC ACID {3-[4-PHENYL-4-(4-BROMO-5-METHYLTHIOPNEN-2-YL)]-PROPYL}-AMIDE [Example 19] | 174 | 517 | 7940 | 11 | 2.5 |  |  | Kb (human MCH1 receptor; Table 3a, antagonist potency, read-out: hMCH1 Kb): 7 nM; Kb (human MCH1 receptor; Table 3b, antagonist potency, read-out: hMCH1 Kb): 7 nM; Kb (human MCH1 receptor; antagonist potency, inhibition of the response to 500 nM MCH, IC50 corrected by Cheng-Prussof, read-out: Kb (nM) hMCH1): 7 nM
COC(=O)C1=C(C)NC(=O)N(C(=O)NCCCN2CCC3(CC2)OCc2ccccc23)C1c1ccc2nonc2c1 (single isomer, unassigned) [Example 18, HYDROCHLORIDE] |  | 612 | 1240 |  |  | 31 |  | Ki (human α2C adrenoceptor): 96 nM; Kb (human MCH1 receptor): 1 nM; Ki [3]: 1.7 nM
CCC1=C(C(=O)O)C(c2ccc(F)c(F)c2)N(C(=O)NCCCN2CCC3(CC2)OCc2ccccc23)C(=O)N1 (single isomer, unassigned; (+)) [Example 4, (+)-1,2,3,6-TETRAHYDRO-1-1N-[4-(BENZO-4′,5′(H)FURAN)PIPERIDIN-1-YL]PROPYL}-CARBOXAMIDO-4-ETHYL-6-(3,4-DIFLUOROPHENYL)-2-OXO-PYRIMIDINE-5 CARBOXYLIC ACID HYDROCHLORIDE] |  |  |  |  |  |  | 187 | 
COCC1=C(C(=O)OC)C(c2ccc(F)c(F)c2)N(C(=O)NCCCN2CCC(c3cccc(NC(C)=O)c3)CC2)C(=O)N1 (single isomer, unassigned; (-)) [Example 1, (−)-1,2,3,6-TETRAHYDRO-1-{N-[4-(3,-ACETAMIDO)-PHENYLPIPERIDIN-1-YL]PROPYL}CARBOXAMIDO-4-METHOXYMETHYL-6-(3,4-DIFLUORO-PHENYL)-2-OXOPYRIMIDINE-5-CARBOXYLIC ACID METHYL ESTER] |  | 1310 |  |  | 2210 |  | 42 | 
COCC1=C(C(=O)OC)[C@H](c2ccc(F)c(F)c2)N(C(=O)NCCCN2CCC(c3cccc(NC(C)=O)c3)CC2)C(=O)N1 [Example 10, (+)-1,2,3,6-TETRAHYDRO-1-{N-[4-(3,-ACETAMIDO)-PHENYLPIPERIDIN-1-YL]PROPYL}CARBOXAMIDO-4-METHOXYMETHYL-6-(3,4-DIFLUORO-PHENYL)-2-OXOPYRIMIDINE-5-CARBOXYLIC ACID METHYL ESTER] |  | 12300 |  | 4880 | 45.8 |  |  | Kb (human MCH1 receptor; intracellular calcium mobilization assay, read-out: antagonist potency (Kb)): 0.3 nM
COC(=O)C1=C(C)NC(=O)N(C(=O)NCCCN2CCC3(CC2)OCc2ccccc23)C1c1ccc(F)c(F)c1 (centres unmarked) [Example 20, 4-(3,4-DIFLUORPHENYL)-6-METHYL-2-OXO-3-{[3-(4-SPIRO[ISOBENZOFURAN-1(3H),4′-PIPERIDINE]PROPYL}-1,2,3,4-TETRAHYDROPYRIMIDINE-5-CARBOXYLIC ACID METHYL ESTER] | 138 | 207 | 2190 |  |  | 39 |  | 
